The source of these data is patent US11666640B2, “Glucose oxidase compositions as a neonate anticonvulsant” (PENN STATE RESEARCH FOUNDATION, priority 2018, dated 2023).

Data set [1] has as its system KA induced neonatal seizure. Put plainly: KA-induced neonatal seizure, in vivo EEG recording. More on the design: species or system rat. Here is the method:
For example, neonatal rats were administered gluconate to determine the effect on in vivo epileptic seizures in neonatal and adult animals. […] FIGS. 14A and 14B; Dzhala et al., “NKCC1 transporter facilitates seizures in the developing brain” Nature Medicine 11:1205-1213 (2005). […] FIGS. 14C and 14D.
To test the in vivo anti-epilepsy effects of gluconate in neonatal and adult rodents, P8-12 Sprague-Dawley rats or 2-month old male C57BL/6 mice were deeply anesthetized with pentobarbital sodium (50 mg/kg for neonatal rat and 100 mg/kg for adult mice, intraperitoneal injection). Two stainless steel screws (1 mm in diameter) were inserted in the skull above the cortex as EEG recording electrodes, one ground electrode as well as one reference electrode were located +1.8 mm anterior to bregma, ±0.5 mm lateral to the midline, and 1 mm below the cortical surface. All electrodes were attached to a micro-connector and fixed onto the skull with dental cement. After surgery, neonatal rats were returned to their mothers and allowed to recover for 2 days prior to subsequent EEG recording. The adult mice were single housed in order to prevent damage of the implanted electrodes and allowed to recover at least 5 days before EEG recording.
The baseline of EEG was recorded for 0.5-1 hr to allow the animal to adapt to the environment. Kainic acid (2 mg/kg) was administered intraperitoneally (i.p.) for neonatal epilepsy induction. D-gluconic acid sodium salt (2 g/kg) or 0.9% saline was injected i.p. 10 min after KA administration. Pentylenetetrazol (PTZ) was administered intraperitoneally for inducing a stable epileptic burst activity in adult mice, and D-gluconic acid sodium salt (1 g/kg and 2 g/kg) or 0.9% saline was injected i.p. 10 min before PTZ administration. Epileptiform activity was monitored for 1 hr after PTZ injection. Qian et al., “Epileptiform response of CA1 neurones to convulsant stimulation by cyclothiazide, kainic acid and pentylenetetrazol in anaesthetized rats” Seizure 20:312-319 (2011). After the experiment, animals were injected with diazepam to protect the animals from recurrent epilepsy.
Power was calculated in 1-min time windows by integrating the power of dominant frequency bands from 1 to 100 Hz (EEG band).

For data set [2], the system named is sodium, potassium or calcium channels. Put plainly: Na+, K+ and Ca2+ currents in cultured cortical neurons. The class given is cell-based, mouse. Particulars: 10 mM NaGcA; sodium salt. The text has this: Experiments were designed to answer the question as to what is/are the molecular target(s) of gluconate. Ion channel regulation was first investigated where a comparison of NaGcA on sodium, potassium or calcium channels was made. […] See, FIGS. 2A-2F. Although it is not necessary to understand the mechanism of an invention, it is believed that since gluconic acid is an organic anion, it might affect neuronal anion channels.

For data set [3], the system named is cultured neurons. Nature of the data set: LIVE/DEAD viability assay, kainic acid (KA)-induced cell death model. The data set is classed as cell-based, mouse. Particulars: sodium salt. The text has this:
Epileptic activity may induce cell death both in epileptic patients and animal models. Chen et al., “Differential roles of NR2A- and NR2B-containing NMDA receptors in activity-dependent brain-derived neurotrophic factor gene regulation and limbic epileptogenesis” The Journal Of Neuroscience: the official journal of the Society for Neuroscience 27:542-552 (2007); and Naseer et al., “Maternal epileptic seizure induced by pentylenetetrazol: apoptotic neurodegeneration and decreased GABAB1 receptor expression in prenatal rat brain” Molecular Brain 2:20 (2009). […] Wu et al., “Protective effect of resveratrol against kainate-induced temporal lobe epilepsy in rats” Neurochemical Research 34:1393-1400 (2009). In a control group, most neurons appeared to be healthy in morphology and were stained by calcein (green, live) but not ethidium homodimer-1 (EthD-1, red, death). See, FIG. 1J, left. […]
A LIVE/DEAD® Viability/Cytotoxicity Assay Kit (L3224, Life Technologies) containing ethidium homodimer-1 and calcein-AM was used to examine cell viability. Ethidium homodimer-1 binds to cellular DNA and typically labels dead cells in red fluorescence, while Calcein-AM can be cleaved by esterases in live cells to give strong green fluorescence. […] Cell survival and death rate were measured by quantifying the percentage of green and red fluorescent cells, respectively. […]

“Also recorded” adds a separate entry of the source.

For `O=C([O-])[C@H](O)[C@@H](O)[C@H](O)[C@H](O)CO.[Na+]` [NaGcA, D-gluconic acid sodium salt], the “epileptic seizure (burst) activity in EEG” value in data set [1] (P10-12, KA 2 mg/kg i.p., drug i.p. 10 min after KA: NaGcA 2 g/kg, phenobarbital 25 mg/kg, bumetanide 2 mg/kg, sodium salt) is “significantly inhibited; also recorded: potently inhibited; also recorded: essentially abolished; also recorded: no robust burst discharges”. Moreover, in data set [1] (P10-12, NaGcA 2 g/kg i.p. vs saline, 1 min time window), the “average power of epileptic activity induced by KA, lowering” value is reported as 70%. In addition, in data set [1] (last 30 min of a 2-hr recording period after KA injection, neonatal), the “reduction of relative EEG power” value stood at 72.3%. The “Na+, K+ and Ca2+ currents” value in data set [2] was “no significant changes; also recorded: no effect”. Besides, the KA-induced neuronal death result in data set [3] (10 μM KA for 24 hrs, co-application of 20 mM NaGcA) is “abolished; also recorded: neuron protection function”. Moreover, in data set [3] (20 mM NaGcA alone), the “neuron survival rate, NaGcA alone” value is listed as “no side effect; also recorded: without any side effect”.
